# Earlier results as cited in patent US20070269386A1, “New product and use and manufacture thereof” (priority 2006, published 2007).
# Test system: adult
smiles,measurement,value
"CN1CCCC1c1cccnc1 (stereo not shown) [nicotine, 3-(1-methyl-2-pyrrolidinyl)-pyridine]",single dose that may kill an adult,Approximately 40 milligrams
